Measured values reported in US6916472B2, “PON3 and uses thereof” (Regents of the University of Michigan, priority 2000, dated 2005).

Experiments:
rabbit serum PON1 = biological target: T1, rabbit serum PON1 (Oryctolagus cuniculus, UniProt P27170); experiment: Hydrolytic activity of purified rabbit serum PON1 with paraoxon, aromatic esters and lactones; assay type: biochemical; settings: 25° C.
T1 construct: PON 1 was purified further by pooling the fractions with highest arylesterase activity from a second DEAE column; from tissue; host or cells: rabbit serum
T1 sequence (P27170 whole entry Y185T): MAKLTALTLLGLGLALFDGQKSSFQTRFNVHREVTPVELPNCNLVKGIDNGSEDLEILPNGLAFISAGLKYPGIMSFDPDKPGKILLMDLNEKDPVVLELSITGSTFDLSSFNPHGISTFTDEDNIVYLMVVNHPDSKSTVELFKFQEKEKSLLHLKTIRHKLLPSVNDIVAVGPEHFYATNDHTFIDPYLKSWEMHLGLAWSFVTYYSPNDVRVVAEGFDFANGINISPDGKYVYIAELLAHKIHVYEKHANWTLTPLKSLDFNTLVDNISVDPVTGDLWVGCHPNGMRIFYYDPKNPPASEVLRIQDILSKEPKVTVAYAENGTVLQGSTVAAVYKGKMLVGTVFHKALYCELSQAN
Method: (§1) Esterase activities with substrates: phenyl acetate, S-phenyl thioacetate, α-naphtyl acetate and paraoxon were measured as described by Kuo and La Du (Kuo and La Du, Drug Metab. Dispos., 23:335 [1995]; Qan et al., Drug Metab Dispos, 19:100-106 [1991]. For example, arylesterase activity is measured using a molar difference extinction coefficient (difference in extinction coefficients of phenol vs. phenol acetate) of 1,310 M^−1 cm^−1, at 270 nm with 1.0 mM phenyl acetate in 50 mM Tris/HCl (pH 8.0):1.0 mM CaCl2 buffer (Gan et al., supra). For the hydrolysis of thiophenyl acetate, the substrate is dissolved in methanol, and the reaction cuvettes contain 1.0 mM substrate in 50 mM Tris/HCl (pH 8.0):1.0 mM CaCl2 buffer. The product, thiophenol, reacts with 5,5′-dithiobis(2-nitrobenzoic acid), and activity is calculated from a molar difference extinction coefficient of 13,600 M^−1 cm^−1 at 412 nm (Augustinsson and Axenfors, Anal. Biochem., 48:428 [1972]). For the hydrolysis of α-naphtyl acetate, substrates are dissolved in ethylene glycol monomethyl ether, and the reaction cuvettes contain 0.5 mM substrate in 50 mM Tris/HCl (pH 8.0):1.0 mM CaCl2 buffer. Enzymatic activities are calculated from the molar extinction coefficients of 23,170 M^−1 cm^−1 at 235 nm. PON activity is measured with 1.0 mM paraoxon in 50 mM glycine:NaOH buffer (pH 10.5):1.0 mM CaCl2 with or without 1.0 M NaCl. Enzymatic activities were calculated from a molar extinction coefficient of 18,290 M^−1 cm^−1 at 412 nm (Gan et al., supra). All enzymatic assays are performed at 25° C. For each assay, 5 μl of purified PON (1.5-2.5 μg of enzyme protein) is added to an assay cuvette. For all substrates, one unit of enzymatic activity is defined as 1 μmol of substrate hydrolyzed/min.
(§2) Hydrolysis of aromatic lactones was monitored by the increase in UV absorbance at 270 nm (dihydrocoumarin), 274 nm (2-coumaranone), and 290 nm (homogentisic acid lactone). Lactones were purchased from Sigma. In a typical experiment a cuvette contained 1 mM substrate (from a […] stock solution, dissolved in methanol) in 50 mM Tris/HCl (pH 8.0), 1 mM CaCl2 and 5-20 μl enzyme source in a total volume of 1 ml. The molar difference extinction coefficients (difference in extinction coefficients of substrate and product) used to calculate the rate of hydrolysis were 1295, 876, and 816 M^−1 cm^−1 for dihydrocoumarin, 2-coumaranone and homogentisic acid lactone, respectively.
(§3) The hydrolysis of other lactones was followed by a calorimetric assay with phenol red (Billecke, et al., Chem Biol Interact, 119-120:251-256, [1999]). The reaction cuvette contained 1 mM substrate (from a 100 mM stock solution, dissolved in methanol) in 2 mM HEPES at starting pH 8.0, 1 mM CaCl2, 0.004% (106 μM) phenol red, 0.005% bovine albumin, and 5-20 μl enzyme solution in a total volume of 1 ml. The rate of acid production was followed by monitoring the increase in absorbance at 422 nm as the color changed from red to yellow. The rate of hydrolysis was derived from a calibration curve obtained using known amounts of HCl.
(§4) All the above assays (Sections, A, B, and C) were performed at 25° C. using a dual beam Cary 3E […] Spectrophotometer (Varian). Reference cuvettes containing the appropriate buffer plus substrate were used in each assay to correct for any spontaneous hydrolysis.

rabbit serum PON3 = biological target: T2, rabbit serum PON3 (Oryctolagus cuniculus, UniProt Q9BGN0); experiment: Hydrolytic activity of purified rabbit serum PON3 with paraoxon, aromatic esters and lactones; assay type: biochemical; settings: for PON3 (rate of hydrolysis of substrate) / PON3 hydrolytic activity with substrate (in words): purified rabbit serum PON3; for PON3 (rate of hydrolysis of substrate): 25° C.; for PON1/PON3 Ratio: ratio of hydrolysis rates of PON1 and PON3
T2 construct: from tissue; host or cells: rabbit serum
T2 sequence (Q9BGN0 2-354 limits assumed): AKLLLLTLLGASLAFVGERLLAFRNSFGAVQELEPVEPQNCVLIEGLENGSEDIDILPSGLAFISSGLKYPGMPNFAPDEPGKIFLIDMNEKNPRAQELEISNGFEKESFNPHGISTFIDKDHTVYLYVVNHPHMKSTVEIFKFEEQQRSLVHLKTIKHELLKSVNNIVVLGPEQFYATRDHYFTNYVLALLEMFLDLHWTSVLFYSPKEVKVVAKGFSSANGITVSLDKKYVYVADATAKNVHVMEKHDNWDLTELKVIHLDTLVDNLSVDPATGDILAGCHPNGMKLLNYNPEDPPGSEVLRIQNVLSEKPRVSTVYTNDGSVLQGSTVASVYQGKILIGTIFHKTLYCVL
Method: as §1, §2, §3, §4

PON3 = biological target: T3, PON3 (Oryctolagus cuniculus, UniProt Q9BGN0); experiment: Hydrolysis of statin lactones by PON3; assay type: biochemical, rabbit
T3 construct: from tissue; host or cells: rabbit serum
T3 sequence (Q9BGN0 2-354 limits assumed): as above
Method: The hydrolysis of the statin lactones (mevastatin, lovastatin and simvastatin) was analyzed by high performance liquid chromatography (HPLC) using a Beckman System Gold HPLC with a Model 126 Programmable Solvent Module, a Model 168 Diode Array Detector set at 238 nm, a Model 7125 Rheodyne manual injector valve with a 20 μl loop, and a Beckman ODS Ultrasphere column (C 18, 250×4.6 mm, 5 μm). Lovastatin (Mevacor) and simvastatin were purchased as 20 mg tablets from Merck, from which the lactones were extracted with chloroform, evaporated to dryness and redissolved in methanol. Mevastatin was purchased from Sigma.
In a final volume of 1 ml, 10-200 μl of enzyme solution and 10 μl of substrate solution in methanol (0.5 mg/ml) were incubated at 25° C. in 50 mM Tris/HCl (pH 7.6), 1 mM CaCl2. […]
Samples were eluted isocratically at a flow rate of 1.0 ml/min with a mobile phase consisting of the following: A=acetic acid/acetonitrile/water (2:249:249, v/v/v) and B=acetonitrile, in A/B ratios of 50/50, 45/55 and 40/60 for mevastatin, lovastatin and simvastatin, respectively. […] Response factors for the acid products were calculated from the peak heights after complete alkaline hydrolysis of the lactones in 0.02 M NAOH for 2-24 hours at 25° C.

Compound	PON1 (rate of hydrolysis of substrate) (rabbit serum PON1) [µmol/min/mg]	PON3 (rate of hydrolysis of substrate) (rabbit serum PON3)	PON1/PON3 Ratio (rabbit serum PON3)	PON3 hydrolytic activity with substrate (in words) (rabbit serum PON3)	hydrolysis of lactone drug by PON3 (in words) (PON3)
CCCC1CCC(=O)O1 (stereo not drawn) [γ-Heptalactone]	107	8.6 µmol/min/mg	12	–	–
CCCCC1CCC(=O)O1 (stereo not drawn) [γ-Octalactone]	104.5	29 µmol/min/mg	3.6	–	–
CC(=O)Oc1ccccc1 [Phenyl Acetate]	768.7	1.0 µmol/min/mg	769	very poor substrates	–
CC1CCCC(=O)O1 (stereo not drawn) [δ-Hexalactone]	207	3.6 µmol/min/mg	58	–	–
CC1CCC(=O)O1 (stereo not drawn) [γ-Valerolactone]	78.4	3.0 µmol/min/mg	26	–	–
CC[C@H](C)C(=O)O[C@H]1C[C@@H](C)C=C2C=C[C@H](C)[C@H](CC[C@@H]3C[C@@H](O)CC(=O)O3)[C@H]21 [lovastatin]	–	–	–	–	can also hydrolyse
δ-Undecalactone	186.8	90 µmol/min/mg	2.1	–	–
CCCCCCC1CCC(=O)O1 (stereo not drawn) [γ-Decalactone]	92	50.2 µmol/min/mg	1.8	–	–
CC1=CCC(=O)O1 [α-Angelica lactone]	175.1	3.4 µmol/min/mg	52	–	–
CCCCC1CCCC(=O)O1 (stereo not drawn) [δ-Nonalactone]	142	44 µmol/min/mg	3.4	–	–
CCCCCC1CCC(=O)O1 (stereo not drawn) [γ-Nonalactone]	79.6	60 µmol/min/mg	1.3	–	–
CCCCCC1CCCC(=O)O1 (stereo not drawn) [δ-Decalactone]	134.8	73 µmol/min/mg	1.8	–	–
CCOP(=O)(OCC)Oc1ccc([N+](=O)[O-])cc1 [Paraoxon]	4.76	<0.0075^1 μmol/min/mg	638	very poor substrates	–
CC(=O)Oc1ccc2ccccc2c1 [β-Naphtyl Acetate]	138.8	4.6 µmol/min/mg	30	–	–
O=C1Oc2ccccc2C1Br (stereo not drawn) [α-Br-2-Coumaronone]	270.1	2.8 µmol/min/mg	97	–	–
O=C1CCC(c2ccccc2)O1 (stereo not drawn) [γ-phenyl-γ-butyrolactone]	203	20.4 µmol/min/mg	10	–	–
CCCCC1OC(=O)CC1C (stereo not drawn) [β-methyl-γ-octalactone]	34.8	3 µmol/min/mg	12	–	–
O=C1Cc2ccccc2O1 [2-Coumaronone]	136.6	32.4 µmol/min/mg	4.0	–	–
CCCCCCCC1CCC(=O)O1 (stereo not drawn) [γ-Undecalactone]	87.4	44.2 µmol/min/mg	2	–	–
CCCCCCCC1CCCC(=O)O1 (stereo not drawn) [δ-Dodecalactone]	179.4	98.2 µmol/min/mg	1.8	–	–
C=C1CCC(=O)O1 [γ-methylene-γ-butyrolactone]	622	12 µmol/min/mg	52	–	–
